These results are taken from patent publication US11214803B2, “Modulators of YAP1 expression” (Ionis Pharmaceuticals, Inc., priority 2019, dated 2022).

The nature of series [1]: Tolerability in Sprague-Dawley rats, body and organ weights (Example 21). In kind it is in vivo. The following applies: male Sprague-Dawley rats, 50 mg/kg s.c. weekly for 6 weeks (7 doses); for Kidney weight / Liver weight / Spleen weight: end of study; for body weight: terminal, prior to necropsy. The procedure:
Terminal body weight was measured prior to necropsy. Ionis oligonucleotides that caused any changes in organ weights outside the expected range for modified oligonucleotides were excluded from further studies.

Series [2] deals with Yap1 mRNA. Nature of the series: Dose-dependent inhibition of human Yap1 in SNU-449 cells (Example 9, RTS36584). In kind it is cell-based. The following applies: free uptake; for % UTC (Yap1 mRNA): approximately 48 hours; for IC50: linear regression on a log/linear plot. The gist of the method: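 Read-out was Yap1 mRNA (primer-probe RTS36584) normalised to total RNA by RIBOGREEN, given as % of untreated cells, with IC50 fitted by linear regression of log/linear data. Oligonucleotides were dosed by free uptake to SNU-449 cells, 10,000/well, for ~48 h.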

A short description of series [3]: Tolerability in Sprague-Dawley rats, kidney function, urine total protein to creatinine ratio (Example 21). As to conditions: male Sprague-Dawley rats, 50 mg/kg s.c. weekly for 6 weeks (7 doses).
Experimental: Male Sprague-Dawley rats were maintained on a 12-hour light/dark cycle and fed ad libitum with Purina normal rat chow. Groups of 4 Sprague-Dawley rats each were weekly injected subcutaneously with 50 mg/kg of Ionis oligonucleotide for 6 weeks (total 7 doses). Forty-eight hours after the last dose, the rats were euthanized; and organs, urine and plasma were harvested for further analysis.
To evaluate the effect of Ionis oligonucleotides on kidney function, urinary levels of total protein and creatinine were measured using an automated clinical chemistry analyzer (Hitachi Olympus AU400c, Melville, N.Y.).
Series [4] in a line: Tolerability in Sprague-Dawley rats, plasma chemistry markers (Example 21). In kind it is in vivo. As to conditions: male Sprague-Dawley rats, 50 mg/kg s.c. weekly for 6 weeks (7 doses), 48 hours after last dose. The procedure:
Sprague-Dawley rats are a multipurpose model used for safety and efficacy evaluations. The rats were treated with Ionis modified oligonucleotides from the studies described in the Examples above and evaluated for changes in the levels of various plasma chemistry markers.

For series [5], the system named is Yap1 mRNA. Nature of the series: Dose-dependent inhibition of human Yap1 in A-431 cells (Example 8, 10,000 cells per well, RTS4814). The class given is cell-based. As to conditions: free uptake, approximately 48 hours, RTS4814; for Yap1 mRNA, % UTC: A-431 cells, 10,000 cells per well. In outline: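 Yap1 mRNA, normalized to RIBOGREEN total RNA and expressed as % untreated control, was read with RTS4814 about 48 h after free-uptake oligonucleotide treatment of A-431 cells at 10,000 cells/well. IC50 derived by linear regression of log/linear data.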

The subject of series [6] is Yap1 mRNA. Nature of the series: Inhibition of human Yap1 mRNA in SNU449 hepatocellular carcinoma xenograft tumors (Example 26). The class given is in vivo. As to conditions: SNU449 xenografts in NSG mice, 50 mg/kg twice weekly for five days, relative to PBS treated animals. The procedure:
A SNU449 hepatocellular carcinoma xenograft tumor model was used to evaluate activity of modified oligonucleotides targeted to human Yap1. Ten million SNU449 cells in 30% matrigel were implanted subcutaneously into the flanks of female NOD Cg-Prkdcscid ll2rgtm1Wjl/SzJ (NSG) mice (from Jackson Laboratory) at 4-6 weeks of age. When tumors reached an average volume of 100 mm^3, approximately two weeks post-implantation, groups of four mice each were administered at 50 mg/kg twice weekly with modified oligonucleotides for five days. Tumors were collected and tested for Yap1 mRNA knockdown by RT-qPCR. Yap1 mRNA levels were measured as previously described using the Human Yap1 primer-probe set RTS4814. Yap1 mRNA levels were normalized to actin-beta content, as measured by primer probe set RTS5002. Results are presented in the tables below as percent control of the amount of Yap1 mRNA relative to PBS treated animals (% control).
On the technique in general: A xenograft is tissue or cells of one species grown in another, often human tumour cells in immunodeficient mice.

Marks after values point to notes of the source that are not given here. Strand notation (5' to 3'): a small letter for the sugar, then the base; units joined by * are phosphorothioate-linked, units joined directly phosphodiester-linked; [ ] holds rarer units or linkages, { } end groups; capitals alone tell only the bases. e = 2'-O-(2-methoxyethyl) (MOE); k = constrained ethyl (cEt); [5mC] = 5-methylcytosine; d = 2'-deoxy (DNA); m = 2'-O-methyl Where only a bound is given, the exact number is not on record here.

A word on the IC50: it is the midpoint of a concentration-inhibition curve. In series [1], “1198873 (kA*kG*dT*dG*dT*dA*dT*dG*dT*d[5mC]*dA*kG*eA*kA*eG*kA; antisense) [compound 1198873]” returned a Kidney weight of 3.65 g, a Liver weight of 19 g, a Spleen weight of 2.42 g and a body weight of 408 g. Moreover, the “% UTC (Yap1 mRNA)” value in the series on Yap1 mRNA [2] (31.3 nM) was determined as 38 % UTC. In addition, the “% UTC (Yap1 mRNA)” value in the series with Yap1 mRNA [2] (125.0 nM) is reported as 12 % UTC. In the series on Yap1 mRNA [2] (500.0 nM), the “% UTC (Yap1 mRNA)” value was 2 % UTC. In addition, in the series on Yap1 mRNA [2] (2000.00 nM), the “% UTC (Yap1 mRNA)” value was found to be 0 % UTC. The substance also returned an IC50 in the series with Yap1 mRNA [2] below 30 nM. In series [3], the “URINE P/C ratio (total protein to creatinine ratio)” value (“URINE P/C ratio” for short) is listed as 9. For the same substance, in series [4], the ALT is listed as 78* U/L, the AST is 79* U/L, the BUN is listed as 24* mg/dL and the TBIL is recorded as 0.17* mg/dL.

In series [1], “1198612 (kA*kA*kG*dT*dG*dT*dA*dT*dG*dT*d[5mC]*dA*kG*kA*kA*eG) [compound 1198612]” yielded a Kidney weight of 3.60 g, a Liver weight of 17 g, a Spleen weight of 2.33 g and a body weight of 345 g. Further, the “% UTC (Yap1 mRNA)” value in the series with Yap1 mRNA [2] (31.3 nM) amounted to 44 % UTC. For the same substance, the “% UTC (Yap1 mRNA)” value in the series on Yap1 mRNA [2] (125.0 nM) is given as 12 % UTC. For the same substance, the “% UTC (Yap1 mRNA)” value with Yap1 mRNA [2] (500.0 nM) turned out to be 2 % UTC. Moreover, the “% UTC (Yap1 mRNA)” value with Yap1 mRNA [2] (2000.00 nM) is 0 % UTC. The substance also had a 50% inhibitory concentration (IC50) in the series with Yap1 mRNA [2] below 30 nM. In addition, the “URINE P/C ratio” value in series [3] is given as 11. In series [4], this substance came in with an ALT of 74 U/L, an AST of 91 U/L, a BUN of 31 mg/dL and a TBIL of 0.12 mg/dL.

In the case of “1198874 (kA*kA*dG*dT*dG*dT*dA*dT*dG*dT*d[5mC]*kA*eG*kA*eA*kG) [compound 1198874]”, in series [1], the Kidney weight stood at 3.67 g, the Liver weight worked out at 20 g, the Spleen weight amounted to 2.61 g and the body weight was 372 g. In addition, the “% UTC (Yap1 mRNA)” value in the series on Yap1 mRNA [2] (31.3 nM) amounted to 36 % UTC. Also, the “% UTC (Yap1 mRNA)” value in the series with Yap1 mRNA [2] (125.0 nM) came to 8 % UTC. In addition, the “% UTC (Yap1 mRNA)” value in the series on Yap1 mRNA [2] (500.0 nM) came to 1 % UTC. In addition, the “% UTC (Yap1 mRNA)” value with Yap1 mRNA [2] (2000.00 nM) was determined as 0 % UTC. In the series with Yap1 mRNA [2], this substance returned a half-inhibitory concentration (IC50) below 30 nM. The “URINE P/C ratio” value in series [3] was determined as 9. For the same substance, in series [4], the ALT came to 73 U/L, the AST worked out at 102 U/L, the BUN stood at 22 mg/dL and the TBIL was found to be 0.16 mg/dL.

For “1074756 (kG*k[5mC]*kA*d[5mC]*dT*dT*dT*dT*dA*d[5mC]*dA*dT*dT*kA*kG*kG) [compound 1074756]”, in series [1], the Kidney weight is reported as 4.71* g. In series [1], the Liver weight is 21* g. For the same substance, the Spleen weight in series [1] is listed as 1.99* g. The same substance registered a body weight in series [1] of 349 g. The “% UTC (Yap1 mRNA)” value in the series on Yap1 mRNA [2] (31.3 nM) stood at 42 % UTC; in the series on Yap1 mRNA [2] (125.0 nM), 20 % UTC; in the series on Yap1 mRNA [2] (500.0 nM), 6 % UTC; with Yap1 mRNA [2] (2000.00 nM), 3 % UTC. Also, the IC50 in the series with Yap1 mRNA [2] was below 30 nM; in the series on Yap1 mRNA [5] (A-431 cells, linear regression on log/linear plot), below 20 nM. The “Yap1 mRNA, % UTC” value in the series on Yap1 mRNA [5] (31.3 nM) turned out to be 22 % UTC; in the series with Yap1 mRNA [5] (125.0 nM) it was 7 % UTC; in the series on Yap1 mRNA [5] (500.0 nM) it was 4 % UTC; in the series on Yap1 mRNA [5] (2000.00 nM), 4 % UTC. The “URINE P/C ratio” value in series [3] was 167. Also, the ALT in series [4] is 114* U/L. Also, the AST in series [4] was 79* U/L. Besides, the BUN in series [4] was 0.57* mg/dL. In addition, the TBIL in series [4] is listed as 0.10* mg/dL.

As for “1198312 (kG*k[5mC]*kA*d[5mC]*dT*dT*dT*dT*dA*d[5mC]*dA*dT*kT*eA*kG*eG) [compound 1198312]”, in series [1], the Kidney weight is reported as 4.26 g, the Liver weight stood at 19 g, the Spleen weight was determined as 2.19 g and the body weight was 365 g. For the same substance, the “% UTC (Yap1 mRNA)” value in the series with Yap1 mRNA [2] (31.3 nM) is listed as 76 % UTC. In addition, the “% UTC (Yap1 mRNA)” value in the series on Yap1 mRNA [2] (125.0 nM) is 34 % UTC. Besides, in the series on Yap1 mRNA [2] (500.0 nM), the “% UTC (Yap1 mRNA)” value is 10 % UTC. Further, the “% UTC (Yap1 mRNA)” value in the series with Yap1 mRNA [2] (2000.00 nM) is on record as 5 % UTC. The same substance came in with an IC50 with Yap1 mRNA [2] of 100 nM. The “URINE P/C ratio” value in series [3] was determined as 60. In series [4], this substance came in with an ALT of 132 U/L, an AST of 108 U/L, a BUN of 25 mg/dL and a TBIL of 0.14 mg/dL.

Turning to “1200857 (kA*kG*kT*dG*dT*mA*dT*dG*dT*d[5mC]*dA*dG*dA*kA*kG*kA; antisense) [compound 1200857]”, in series [1], the Kidney weight is reported as 6.97 g, the Liver weight is listed as 19 g, the Spleen weight came to 2.55 g and the body weight was determined as 307 g. In addition, the “% UTC (Yap1 mRNA)” value in the series with Yap1 mRNA [2] (31.3 nM) is listed as 66 % UTC. Also, the “% UTC (Yap1 mRNA)” value with Yap1 mRNA [2] (125.0 nM) amounted to 30 % UTC. Also, in the series on Yap1 mRNA [2] (500.0 nM), the “% UTC (Yap1 mRNA)” value came out at 8 % UTC. Besides, the “% UTC (Yap1 mRNA)” value with Yap1 mRNA [2] (2000.00 nM) is on record as 2 % UTC. In the series on Yap1 mRNA [2], inhibition was half-maximal at 100 nM (IC50). In addition, the “URINE P/C ratio” value in series [3] worked out at 52. In addition, in series [4], the ALT amounted to 183 U/L, the AST stood at 318 U/L, the BUN was 56 mg/dL and the TBIL was 4.93 mg/dL.

Take “1198615 (kT*kT*kA*dA*dA*dG*dT*dG*dT*dA*dT*dG*kT*k[5mC]*kA*eG) [compound 1198615]”: in series [1], the Kidney weight is 3.01 g, the Liver weight amounted to 16 g, the Spleen weight was 2.35 g and the body weight was 369 g. In the series on Yap1 mRNA [6], the “Yap1 mRNA in tumors, % control” value stood at 62 % control. Further, in the series on Yap1 mRNA [2] (31.3 nM), the “% UTC (Yap1 mRNA)” value worked out at 52 % UTC. In addition, the “% UTC (Yap1 mRNA)” value in the series on Yap1 mRNA [2] (125.0 nM) is 23 % UTC. The “% UTC (Yap1 mRNA)” value in the series with Yap1 mRNA [2] (500.0 nM) came out at 5 % UTC. The “% UTC (Yap1 mRNA)” value in the series with Yap1 mRNA [2] (2000.00 nM) came out at 2 % UTC. In the series on Yap1 mRNA [2], this substance had a concentration for half-maximal inhibition (IC50) below 30 nM. The “URINE P/C ratio” value in series [3] stood at 8. For the same substance, in series [4], the ALT worked out at 38 U/L, the AST amounted to 71 U/L, the BUN worked out at 21 mg/dL and the TBIL worked out at 0.13 mg/dL.
